Measured values as given in patent publication US20150315211A1, “SMALL MOLECULES FOR THE MODULATION OF MCL-1 AND METHODS OF MODULATING CELL DEATH, CELL DIVISION, CELL DIFFERENTIATION AND METHODS OF TREATING DISORDERS” (priority 2010, published 2015).

Tests used:
MCL-1ΔNΔC [1] = biological target: MCL-1ΔNΔC (Homo sapiens, UniProt Q07820); assay: High-throughput competitive FP binding screen, FITC-MCL-1 SAHB/MCL-1ΔNΔC interaction; set-up: the C-terminal alpha-helix was deleted from each of these constructs; GST (N, cleaved yes); made in house; conditions: FITC-MCL-1 SAHB/MCL-1ΔNΔC interaction pair, competitive FP screen
BCL-XLΔC = BCL-XLΔC (Homo sapiens, UniProt Q07817); assay: High-throughput competitive FP binding screen, FITC-BAD BH3/BCL-XLΔC interaction; conditions: FITC-BAD BH3/BCL-XLΔC interaction pair, competitive FP screen
MCL-1ΔNΔC [2] = assay: High-throughput competitive FP binding screen, FITC-MCL-1 SAHB/MCL-1ΔNΔC interaction; conditions: selectivity for MCL-1ΔNΔC over BCL-XLΔC targeting (BCL-XL % Bound minus MCL-1 % Bound)

Chain of MCL-1ΔNΔC (Homo sapiens, UniProt Q07820) (Q07820 172-320 limits assumed, stated change not applied): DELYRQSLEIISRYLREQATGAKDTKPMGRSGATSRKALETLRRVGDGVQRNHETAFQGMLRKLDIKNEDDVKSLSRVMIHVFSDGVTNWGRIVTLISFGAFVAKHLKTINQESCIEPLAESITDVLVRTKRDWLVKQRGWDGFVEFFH
Chain of BCL-XLΔC (Q07817 1-212 limits assumed, stated change not applied): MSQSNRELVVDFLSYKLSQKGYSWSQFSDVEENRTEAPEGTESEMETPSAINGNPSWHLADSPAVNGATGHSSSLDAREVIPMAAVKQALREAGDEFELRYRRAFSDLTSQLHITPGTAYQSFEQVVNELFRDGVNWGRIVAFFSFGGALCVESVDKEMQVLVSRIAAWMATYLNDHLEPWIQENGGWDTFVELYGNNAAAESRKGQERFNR

| SMILES | MCL-1% Bound (MCL-1ΔNΔC [1]) [%] | BCL-XL % Bound (BCL-XLΔC) [%] | Spec Values (MCL-1ΔNΔC [2]) |
| --- | --- | --- | --- |
| CCOc1ccc(S(=O)(=O)NC2C=C(Sc3nc[nH]n3)C(=O)c3ccccc32)cc1 (stereo not drawn) | 2.333 | 103.4 | 101.1 |
| O=C1C(Sc2nc[nH]n2)=CC(NS(=O)(=O)c2ccc(F)cc2)c2ccccc21 (stereo not drawn) | 4.952 | 96.12 | 91.16 |
| CCOC(=O)C1=C(NC(=O)c2ccccc2)S/C(=C\c2ccc(C)o2)C1=O | 43.16 | 101.2 | 58.06 |
| CCOC(=O)c1ccc(-c2ccc(/C=C3\S/C(=N\N=C4/C(=O)Nc5ccccc54)NC3=O)o2)cc1 | 13.28 | 66.63 | 53.34 |
| O=C1N/C(=N/c2ccccc2)S/C1=C/C=C/c1ccco1 | 48.95 | 97.59 | 48.63 |
| COc1ccc(/C=c2\s/c(=C\C(=O)c3ccco3)[nH]c2=O)cc1O | 215.6 | 263.7 | 48.14 |
| O=C1N/C(=N\c2ccc(F)cc2)S/C1=C/c1ccc(N2CCCCCC2)o1 | 40.42 | 87.8 | 47.38 |
| CCOc1ccc(NC(=O)CC2C(=O)N(Cc3ccco3)C(=S)N2CCNC(C)=O)cc1 (stereo not drawn) | 19.69 | 102.4 | 82.72 |
| CN(C)/C=C1\SC(=S)N(c2ccc(Br)cc2)C1=O | 33.27 | 112.3 | 79.08 |
| CC(C)C(C(=O)O)N1C(=O)/C(=C/C=C/c2ccco2)SC1=S (stereo not drawn) | 26.08 | 102.8 | 76.69 |
| O=C(NN1C(=O)S/C(=C/C=C/c2ccco2)C1=O)c1ccccc1O | 19.8 | 95.8 | 76.1 |
| O=C1NC(=S)S/C1=C\c1ccc(-c2ccc(S(=O)(=O)N3CCOCC3)cc2)o1 | 38.57 | 107.9 | 69.33 |
| O=C(O)C(Cc1ccccc1)N1C(=O)/C(=C\c2ccco2)SC1=S (stereo not drawn) | 21.29 | 90.21 | 68.92 |
| O=C1/C(=C\C=C\c2ccco2)SC(=S)N1NS(=O)(=O)c1ccccc1 | 23.0 | 89.9 | 66.9 |
| CN(C)c1ccc(/C=C2\SC(=O)N(CCC(=O)Nc3ccccc3)C2=O)cc1 | 29.45 | 92.22 | 62.76 |
| CCCN1C(=O)/C(=C/c2ccc(-c3cccc(C(F)(F)F)c3)o2)NC1=S | 27.93 | 85.65 | 57.72 |
| O=C1NC(=S)C(=C2CCCC2)S1 | 38.05 | 93.34 | 55.3 |
| O=C(CCN1C(=O)/C(=C\C=C\c2ccco2)SC1=S)Nc1ccc(C(=O)O)c(O)c1 | 21.54 | 76.09 | 54.54 |
| O=C1NC(=O)/C(=C\c2cccc(C(F)(F)F)c2)S1 | 42.59 | 94.16 | 51.57 |
| CCN1C(=O)C2Cc3cc(OC)c(OC)cc3CN2C1=O (stereo not drawn) | 39.84 | 91.73 | 51.9 |
| O=C(O)CC1NC(=S)N(Cc2ccccc2)C1=O (stereo not drawn) | 48.71 | 98.89 | 50.19 |
| CC(C)CN1C(=O)/C(=C\c2ccc(-c3ccc(S(N)(=O)=O)cc3)o2)SC1=S | 58.51 | 105.9 | 47.35 |

| SMILES | MCL-1% Bound (MCL-1ΔNΔC [1]) [%] | BCL-XL % Bound (BCL-XLΔC) [%] | Spec Values (MCL-1ΔNΔC [2]) |
| --- | --- | --- | --- |
| CC(C)/N=c1\scc(-c2cccs2)n1/N=C/c1ccc(O)c(O)c1O | −23.1 | 101.7 | 124.8 |
| Cc1cs/c(=N\C2CCCCC2)n1/N=C/c1ccc(O)c(O)c1O | −16.27 | 89.95 | 106.2 |
| Cc1nn2c(S)nnc2nc1O | −65.83 | 102.7 | 168.5 |
| CCN(CC)c1ccc2cc(C(N)=O)/c(=N\NC(=O)c3ccccc3)oc2c1 | −6.592 | 129.3 | 135.9 |
| COc1ccc(C(=O)COC(=O)c2c3c(nc4ccccc24)CCN(C)C3)cc1 | −30.96 | 88.79 | 119.7 |
| Cc1cc2nc(N3CCC(C)CC3)c3ccccc3n2n1 | −1.786 | 106.7 | 108.5 |
| CC(C)(C)c1cc(Cc2ccc(O)c(O)c2)cc(C(C)(C)C)c1O | −11.56 | 96.57 | 108.1 |
| Oc1c(C(c2cccs2)N2CCCCC2)ccc2cccnc12 (stereo not drawn) | 9.463 | 115.2 | 105.7 |
| CC1(C)CC2CC(C)(CN2c2nc(N)c3c(N)nc4c(c3c2C#N)CC(=O)N4C2CCCC2)C1 (stereo not drawn) | 10.72 | 114.7 | 104 |
| CCOc1ccc(S(=O)(=O)/N=C2/C=C(Sc3nc[nH]n3)C(=O)c3ccccc32)cc1 | 2.333 | 103.4 | 101.1 |
| O=C1NC(=S)N/C1=C1/C(=O)Nc2ccccc21 | 14.04 | 112.9 | 98.82 |
| Oc1ccc(/C=N/NC(=S)Nc2ccc(Cl)cc2Cl)c(O)c1O | −10.87 | 87.36 | 98.23 |
| COc1cc(OC)c(C2=NOC(C(=O)Nc3cc(C)n(CC(=O)NCc4ccco4)n3)C2)cc1Cl (stereo not drawn) | −14.5 | 83.62 | 98.12 |
| CCOC(=O)/C(C#N)=C\c1ccc(N2CCOCC2)cc1 | −18.5 | 78.1 | 96.6 |
| Cc1ccc(C2=NC(=O)/C(=C/c3cc(O)c(O)c(Br)c3)S2)cc1 | 2.607 | 96.59 | 93.98 |
| O=C1C(Sc2nc[nH]n2)=C/C(=N/S(=O)(=O)c2ccc(F)cc2)c2ccccc21 | 4.952 | 96.12 | 91.16 |
| NC(=O)c1c(Nc2nc3c(F)cccc3s2)sc2c1CCCC2 | 14.83 | 103.9 | 89.1 |
| O=C(c1ccccc1)c1ccc2nc(-c3ccco3)c(-c3ccco3)nc2c1 | 14.6 | 101.3 | 86.7 |
| CC(C)(C)c1cc(O)c2oc(=O)c(-c3nc(-c4ccccc4F)no3)cc2c1 | −13.01 | 71.1 | 84.11 |
| C/N=c1\scc(-c2c[nH]c3ccccc23)n1C | 30.17 | 114.1 | 83.96 |
| Cc1ccc(NC(=O)COc2ncnc3c2cnn3-c2ccccc2)cc1 | 16.2 | 99.91 | 83.71 |
| O=S(=O)(Nc1ccc(Oc2ccc(Cl)cc2C2CCCCC2)nc1)c1cccc2nonc12 | 20.72 | 103.4 | 82.7 |
